The record followed here is publication PMC6467542 (Bioorganic & Medicinal Chemistry, 2019).

Each structure is given as a SMILES string. ≈ marks a conversion by molar mass, not a printed value. Like-named read-outs stand apart in the source and are kept apart here.

In general, MIC90 refers to an inhibitory concentration at the 90% level, which refers to growth in some studies and to a panel of isolates in others. In general, IC50 refers to the concentration that inhibits the measured activity by half. What is called microsomal CLint is the capacity of the preparation to metabolise the compound, expressed as a volume cleared per time. Low readings indicate slow turnover, high ones rapid turnover. In general, clearance refers to a measure of how efficiently the substance is removed, as volume per time. Read a low clearance as inefficient removal.

Data set [1] relates to M. tb (strain H37Rv). Description: MIC90 against non-replicating M.tb (LORA). It is filed as cell-based, Mycobacterium tuberculosis. As to conditions: Mycobacterium tuberculosis, H37RV, read-out: MIC90 LORA. The procedure:
In these assays, 1 is a potent inhibitor, with MICs of 0.08 and 0.12 µg/mL, respectively. Replacement of the naphthalene C-unit of 1 with various pyridyls produced analogues of considerably lower lipophilicity, with clogP values ranging from 6.89 down to 2.98.

Data set [2] is described as follows: Cytotoxicity in Vero cells. Format: cell-based. The following applies: green monkey, Vero green monkey-derived epithelial kidney cells.
Data set [3] deals with M. tb (strain H37Rv). Description: MIC90 against replicating M.tb (MABA). As to conditions: Mycobacterium tuberculosis, aerobic (replicating) conditions, 90% inhibition of growth. Format: cell-based, Mycobacterium tuberculosis.
Data set [4] is described as follows: in vitro. The following applies: mouse, microsomes.
Another data set has as its system M.tb. Briefly: Efficacy in a mouse model of TB (lung CFU reduction). It is filed as in vivo.
For data set [5] the following is noted: mouse, in vivo.
The target in a further data set is CYP3A4 (Homo sapiens, UniProt P08684). Description: Inhibition of CYP 3A4. It is filed as in vitro ADME.
The nature of data set [6]: in vitro. The following applies: human, microsomes.
The next data set concerns the target hERG potassium channel (Homo sapiens, UniProt Q12809). Description: Inhibition of hERG potassium current (patch clamp electrophysiology). The following applies: read-out: hERG IC50; manual patch clamp, 5-concentration dose-response. In general terms: Block of hERG is tested as a sign of cardiac risk.
The nature of a further data set: in vivo. The following applies: mouse, iv.
Data set [7] is described as follows: Clearance by mouse liver microsomes. (Microsomes from liver hold many membrane-bound enzymes, among them those of drug oxidation.)
The nature of data set [8]: Clearance by human liver microsomes.
Setting [9] is: Mycobacterium tuberculosis, inhaled or nasal, 288 h; read-out: Log reduction in colony-forming units (CFU), new compound.

Chain of hERG potassium channel (Q12809 whole entry): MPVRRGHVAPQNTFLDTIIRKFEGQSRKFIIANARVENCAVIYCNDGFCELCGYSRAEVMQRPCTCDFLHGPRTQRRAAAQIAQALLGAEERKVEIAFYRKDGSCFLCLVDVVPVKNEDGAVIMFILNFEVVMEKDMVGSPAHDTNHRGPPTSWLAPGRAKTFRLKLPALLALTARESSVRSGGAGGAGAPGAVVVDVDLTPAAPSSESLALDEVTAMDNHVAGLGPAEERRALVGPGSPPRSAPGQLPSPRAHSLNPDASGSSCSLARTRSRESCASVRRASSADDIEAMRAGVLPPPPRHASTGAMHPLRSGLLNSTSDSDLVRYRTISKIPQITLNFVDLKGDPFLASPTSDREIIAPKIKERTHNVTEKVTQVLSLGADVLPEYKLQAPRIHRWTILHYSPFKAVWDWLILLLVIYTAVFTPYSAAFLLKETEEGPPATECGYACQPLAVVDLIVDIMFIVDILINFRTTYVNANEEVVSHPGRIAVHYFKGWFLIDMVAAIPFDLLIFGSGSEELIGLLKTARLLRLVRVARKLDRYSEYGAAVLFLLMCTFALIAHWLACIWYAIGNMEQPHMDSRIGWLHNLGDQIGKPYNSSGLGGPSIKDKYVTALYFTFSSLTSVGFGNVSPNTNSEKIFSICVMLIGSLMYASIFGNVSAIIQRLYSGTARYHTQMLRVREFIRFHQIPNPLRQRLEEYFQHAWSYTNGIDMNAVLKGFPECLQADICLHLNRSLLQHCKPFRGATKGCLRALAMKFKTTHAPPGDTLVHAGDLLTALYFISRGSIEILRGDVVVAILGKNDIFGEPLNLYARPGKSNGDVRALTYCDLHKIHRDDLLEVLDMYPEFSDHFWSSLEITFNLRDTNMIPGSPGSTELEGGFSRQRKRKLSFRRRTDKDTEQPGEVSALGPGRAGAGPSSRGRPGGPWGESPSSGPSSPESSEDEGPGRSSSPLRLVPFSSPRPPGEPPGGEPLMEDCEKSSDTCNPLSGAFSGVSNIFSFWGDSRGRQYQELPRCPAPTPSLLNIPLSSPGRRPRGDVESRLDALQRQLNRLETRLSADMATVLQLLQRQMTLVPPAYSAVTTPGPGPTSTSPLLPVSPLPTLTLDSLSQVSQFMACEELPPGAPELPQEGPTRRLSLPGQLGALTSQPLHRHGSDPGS
Chain of CYP3A4 (P08684 whole entry): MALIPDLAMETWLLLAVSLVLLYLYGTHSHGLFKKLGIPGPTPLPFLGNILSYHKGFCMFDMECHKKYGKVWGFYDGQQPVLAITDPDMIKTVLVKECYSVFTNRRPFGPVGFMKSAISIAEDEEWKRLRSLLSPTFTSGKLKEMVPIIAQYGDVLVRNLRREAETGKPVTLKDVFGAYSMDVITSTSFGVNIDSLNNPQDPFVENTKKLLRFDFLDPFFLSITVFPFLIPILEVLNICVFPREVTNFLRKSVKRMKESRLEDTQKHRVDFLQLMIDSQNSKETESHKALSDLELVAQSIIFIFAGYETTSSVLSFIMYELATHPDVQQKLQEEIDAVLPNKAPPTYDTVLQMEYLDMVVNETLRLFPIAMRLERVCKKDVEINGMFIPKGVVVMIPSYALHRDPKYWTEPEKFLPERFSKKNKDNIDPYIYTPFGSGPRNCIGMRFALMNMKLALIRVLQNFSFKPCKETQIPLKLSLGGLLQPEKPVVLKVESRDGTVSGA

As to `COc1nc2ccc(Br)cc2cc1[C@@H](c1ccccc1)[C@@](O)(CCN(C)C)c1cccc2ccccc12` [Compound 1, Bedaquiline, reference compound], the MIC90 in the data set with M. tb (strain H37Rv) [1] came to 0.12 µg/mL (≈ 0.216 µM); against M. tb (strain H37Rv) [3], 0.08 µg/mL (≈ 0.144 µM). In data set [2], the half-maximal inhibitory concentration (IC50) lay within 4 to 16 µg/mL (≈ 7.2 to 28.8 µM).

For the molecule `COc1cccc(C(O)(CCN(C)C)C(c2cc3cc(Br)ccc3nc2OC)c2cccc3c2OCO3)n1` (stereo not shown) [Compound 15], the microsomal CLint stood at 25 µL/min/mg in “in vitro [4]” and 8 µL/min/mg in “in vitro [6]”. In addition, the log reduction at 20 mg/kg in the data set on M.tb (setting [9]) was 0.3. Besides, the “AUC: exposure, AUCinf” value in data set [5] is 5600 ng·h/mL. Moreover, the “IV Cl: IV clearance” value in data set [5] is on record as 13 mL/min/kg. In data set [5], the “Vz: IV apparent volume of distribution during terminal phase” value (shortened to “Vz: IV apparent volume”) was 10 L/kg. Besides, the “F: oral bioavailability” value in data set [5] was found to be 45%. For the same molecule, the MIC90 with M. tb (strain H37Rv) [1] worked out at 0.58 µg/mL (≈ 0.999 µM); against M. tb (strain H37Rv) [3], 0.54 µg/mL (≈ 0.93 µM). In addition, the IC50 against CYP3A4 was found to be 7.6 µM; on hERG potassium channel, 0.24 µM.

Molecule `COc1cccc(C(c2cc3cc(C#N)ccc3nc2OC)C(O)(CCN(C)C)c2cc(C)nc(C)c2)c1OC` (stereo not shown) [Compound 57] yielded a microsomal CLint in “in vitro [4]” of 7 µL/min/mg. In the data set on M.tb (setting [9]), the log reduction at 20 mg/kg was determined as 1.9. In data set [5], the “AUC: exposure, AUCinf” value came out at 1480 ng·h/mL; the “IV Cl: IV clearance” value amounted to 71 mL/min/kg; the “Vz: IV apparent volume” value was 82 L/kg; the “F: oral bioavailability” value is listed as 54%. Moreover, the clearance in “in vivo” was > 50 mL/min/kg. Further, the MIC90 in the data set with M. tb (strain H37Rv) [1] stood at 0.61 µg/mL (≈ 1.13 µM). Also, in the data set with M. tb (strain H37Rv) [3], the MIC90 was determined as 0.24 µg/mL (≈ 0.444 µM). In “in vitro [6]”, this molecule came in with a microsomal CLint of 7 µL/min/mg. In addition, the IC50 at hERG potassium channel is 5.2 µM.

As to `CCOc1cc(C(O)(CCN(C)C)C(c2cc3cc(Br)ccc3nc2OC)c2ccnc(OC)c2OC)cc(OC(C)C)n1` (stereo not shown) [Compound 61], in the data set on M.tb (Mycobacterium tuberculosis, inhaled or nasal, 288 h, read-out: Log reduction in colony-forming units (CFU), new compound), the log reduction at 20 mg/kg amounted to 5. The results for the microsomal CLint in data set [7] and in data set [8] were 7 µL/min/mg and 8 µL/min/mg, respectively. The “F: oral bioavailability” value in “Mouse pharmacokinetics” (mice) was found to be 50%. Further, the “AUC: exposure, AUCinf” value in “Mouse pharmacokinetics” (mouse) came out at 10900 ng·h/mL. The “IV Cl: IV clearance” value in “Mouse pharmacokinetics” (mouse, IV) is recorded as 7 mL/min/kg. In addition, the “Vz: IV apparent volume” value in “Mouse pharmacokinetics” (mouse, IV) was 44 L/kg. The MIC90 in the data set on M. tb (strain H37Rv) [1] was determined as 0.06 µg/mL (≈ 0.0896 µM); against M. tb (strain H37Rv) [3], 0.01 µg/mL (≈ 0.0149 µM).
